Measurements taken from patent US11045456B2, “Compositions and methods for treating COPD and other inflammatory conditions” (Georgia State University Research Foundation, Inc., priority 2015, dated 2021).

How the values were obtained:
PDE4A and 4C = assay: Expression of other PDE4 family members (PDE4A, 4C) in BEAS-2B cells; assay type: cell-based, human; details: NTHi or roflumilast
Text: (§1) Cell culture. All media described below were supplemented with 10% fetal bovine serum (Sigma-Aldrich). Human bronchial epithelial BEAS-2B cells were maintained in RPMI medium (Life Technologies) (ATCC® CRL-9609™). Human primary bronchial epithelial NHBE (Lonza) cells were maintained in bronchial epithelial growth media (BEGM) supplemented with BEGM SingleQuots (Jono et al., J. Biol. Chem. 277(47):45547-45557, 2002). BEAS-2B cells stably expressing human PDE4B2 (PDE4B2-stable cells) were obtained by plasmid transfection following Geneticin selection (300 μg/mL). Cells were cultured in a humidified atmosphere of 5% CO2 at 37° C.

PDE4B2 = PDE4B2 expression (RT-PCR) in BEAS-2B cells; assay type: cell-based, human
Description: (§2) Bacterial strains and culture condition. Clinical isolates of NTHi strain 12 were used in this study (Ishinaga et al., EMBO J., 26(4):1150-1162, 2007). Bacteria were grown on chocolate agar plates at 37° C. in an atmosphere of 5% CO2 overnight and subsequently inoculated in brain heart infusion (BHI) broth supplemented with 3.5 μg/mL NAD and hemoglobin (BD Biosciences). After overnight incubation, the bacteria were subcultured into fresh broth and the log phase bacteria, monitored by measurement of optical density (OD) value, were washed and suspended in DMEM for in vitro cell experiments and in isotonic saline for in vivo animal experiments. For all in vitro experiments except the dose dependent experiment, NTHi was treated at multiplicity of infection (MOI) of 50.
as §1
Plasmids, transfections and luciferase assay. The expression plasmids, constitutively active forms of IKKα (IKKα-CA, S176E/S180E) and IKKβ (IKKβ-CA, S177E/S181E) and a dominant negative form of IκBα (IκBα-DN, S32A/S36A) were previously described (Shuto et al., Proc. Natl. Acad. Sci. USA, 98(15):8774-8779, 2001; Ishinaga et al., supra). Luciferase reporter construct of NF-κB (pGL4.32) was purchased from Promega. Human PDE4B2, p65 (RelA) and PKA-Cβ1/2 cDNA sequences were generated and inserted into the BamHI and HindIII sites of the pcDNA3.1/mycHis(−) vector. Mutant p65 and PDE4B2-D392A were generated by using PRIMESTAR® Max (Takara). Empty vector was used as a control and was also added where necessary to ensure an equivalent amount of input DNA. All transient transfections were carried out in triplicate using TRANSIT-LT1® reagent (Minis) following the manufacturer's instruction.

[1] = system: CCL5, CCL7, CXCL10, CXCL11, IL-8, GM-CSF and TNF-α; assay: NTHi-induced expression of pro-inflammatory mediators in BEAS-2B cells; assay type: cell-based, human
Description: as §2, with “Clinical isolates of NTHi strain 12 were used in this study (Ishinaga et al., EMBO J., 26(4):1150-1162, 2007).” left out
Cell culture. All media described below were supplemented with 10% fetal bovine serum (Sigma-Aldrich). […] BEAS-2B cells stably expressing human PDE4B2 (PDE4B2-stable cells) were obtained by plasmid transfection following Geneticin selection (300 μg/mL). Cells were cultured in a humidified atmosphere of 5% CO2 at 37° C.

[2] = system: CCL5, CCL7, CXCL10 and CXCL11; assay: NTHi-induced chemokine expression in PDE4B2-stable cells; assay type: cell-based, human
NF-κB promoter = assay: IKKβ-CA-induced NF-κB promoter activity (luciferase) in PDE4B2-transfected cells; assay type: cell-based, human; details: up to 10 μM
Description: (§3) Plasmids, transfections and luciferase assay. […] Empty vector was used as a control and was also added where necessary to ensure an equivalent amount of input DNA. All transient transfections were carried out in triplicate using TRANSIT-LT1® reagent (Minis) following the manufacturer's instruction.

[3] = system: Group A chemokines (CCL5, CCL7, CXCL10, CXCL11); assay: IKKβ-CA-induced Group A-chemokine expression in PDE4B2-transfected cells; assay type: cell-based, human; details: up to 10 μM
Description: as §3

p65 = p65 phosphorylation by Phos-tag PAGE in BEAS-2B cells; assay type: cell-based, human; details: roflumilast as co-treatment with NTHi
Description: Phos-tag PAGE. Recombinant p65 proteins or nuclear extracts recovered without EDTA/EGTA were separated by SDS-PAGE, with 6% gels containing 50 μM Mn^2+-Phos-tag Acrylamide and transferred to PVDF membrane according to the manufacture's instructions (Kinoshita et al., Mol. Cell. Proteomics 5(4):749-757, 2006.

p65 and PKA-Cβ = assay: Co-immunoprecipitation of p65 and PKA-Cβ in BEAS-2B cells; assay type: cell-based, human; details: BEAS-2B cells transfected with p65 and PKA-Cβ; co-treatment of roflumilast with NTHi
Description: Immunoprecipitation. Cell extracts were incubated with 1 μg of primary antibodies overnight at 4° C., followed by a 2 h incubation with protein G PLUS-agarose beads (Santa Cruz Biotechnology). Immunoprecipitates were then suspended in a sample buffer, separated on 8% SDS-PAGE gels, transferred to PVDF membrane, and detected by immunoblot analysis as described above.

PDE4 = details: estimated; Bender and Beavo; cited from earlier work
[4] = cells overexpressing PDE4B2-WT or PDE4B2-D392A
[5] = cells transfected with PDE4B2-D392A

## O=C(Nc1c(Cl)cncc1Cl)c1ccc(OC(F)F)c(OCC2CC2)c1 [roflumilast]
PDE4A and 4C
  expression of PDE4A and 4C: not up-regulated
PDE4B2; BEAS-2B, Rof 0.1 μM with NTHi or TNF-α (10 ng/mL), semi-quantitative RT-PCR
  expression of PDE4B2: synergistically up-regulated
PDE4B2; cells transfected with p65 mutants S468A, S529A and S536A but not S276A, roflumilast and NTHi
  PDE4B2 expression: synergistically enhanced
PDE4B2; in IKKβ-CA- but not IKKα-CA-transfected BEAS-2B cells
  PDE4B2 expression: synergistically enhanced
PDE4B2; p65-transfected cells
  PDE4B2 expression: synergistically enhanced
[1]; BEAS-2B cells
  NTHi-induced induction of CCL5, CCL7 and IL-8: modestly suppressed
  NTHi-induced induction of TNF-α and GM-CSF: markedly inhibited
[1]; BEAS-2B cells, even at higher concentration
  NTHi-induced CXCL10 and CXCL11 induction: almost no inhibitory effect
[1]; in PDE4B-depleted but not in PDE4D-depleted cells
  efficacy in suppressing Group A-chemokines: more efficacious
[2]; highest concentration tested (10 μM)
  NTHi-induced expression of CCL5, CCL7, CXCL10 and CXCL11 (Group A-chemokines): unable to fully inhibit
[2]; lower dose of roflumilast (<1 μM)
  NTHi-induced expression of CXCL10 and CXCL11: slightly enhanced
NF-κB promoter; [4]
  IKKβ-CA-induced NF-κB promoter activity: unable to fully inhibit
NF-κB promoter; [5]
  IKKβ-CA-induced NF-κB promoter activity: unable to fully inhibit
[3]; [4]
  IKKβ-CA-induced Group A-chemokine expression: unable to fully inhibit
[3]; [5]
  IKKβ-CA-induced Group A-chemokine expression: unable to fully inhibit
p65
  phosphorylation of p65 (induction): induced phosphorylation of p65
p65 and PKA-Cβ
  interaction of p65 and PKA-Cβ: enhanced
PDE4
  IC50: < 1 nM
